Source: US5726156A, “Cytokine regulatory agents and methods of use in pathologies and conditions associated with altered cytokine levels” (Trega Biosciences, Inc., priority 1995, dated 1998)
“And” between values parts separate entries of the source, which are not always exact repeats. Equal entries are not always repeated. Square brackets hold non-standard residues; d marks the D form. Peptide text beside a SMILES is read from it.

Legend:
LPS-induced lethality [1] = test: LPS-induced lethality (IP dosing); format: in vivo, mice; conditions: 11 × 300 μg/mouse IP (3.3 mg), every 4 hr; 0.6 mg LPS
Protocol: These experiments were performed based on information reported by Rivier etal., Endocrinology 125:2800-2805 (1989), which is incorporated herein by reference. Adult female Balb/c mice were provided food and water ad libitum. Mice were injected IP every four hr for 40 hr with 30 to 300 μg EX-2, EX-3 or EX-4 in 0.2 ml saline (treated group) or with 0.2 ml saline, alone (control group) (10 mice per group). Immediately following the first injection, 0.6 mg LPS endotoxin in 0.2 ml saline was administered to each mouse. Following LPS injection, EX-2 or saline was administered to the treated mice or the control mice, respectively, every 4 hr for 36 hr.

TNF-α [2] = test: Reduction of LPS-induced TNF levels in mice (IP dosing); format: in vivo; conditions: 150 μg/mouse IP, one min before LPS 5 mg/kg IP
Protocol: Balb/c female mice weighing approximately 20 g were placed into two groups, a control group and a treated group. Five mg/kg of LPS in 0.9% saline was administered by intraperitoneal (IP) injection into the control mice. Mice in the treated group were first injected IP with 30 μg EX-2 or 150 μg EX-3 in saline, then, one min after EX-2 or EX-3 was administered, the mice received LPS as described for the control group.
Blood samples were collected from the orbital sinus of treated and control mice at various times up to four hr after LPS was administered. The plasma was separated by centrifugation at 3000×g for 5 min, then diluted with four volumes of 1× phosphate buffer saline (pH 7.4) containing 1% bovine serum albumin. A 100 μl sample of serum was assayed by ELISA for TNF-α (Genzyme; Cambridge Mass.).
The mean (+/- SEM) TNF-α level in six mice from each group was determined and the percent reduction in TNF levels was calculated.

[3] = system: Carageenan-induced paw swelling; test: Carageenan-induced paw swelling; format: in vivo, mice; conditions: 1 μg/mouse; 2 hr time point
Protocol: Carageenan-induced paw swelling was induced using a modification of the methods of Hiltz and Lipton, Peptides 11:979-982 (1990); Vinegar et al., Fed. Proc. 46:118-126 (1987); and Vinegar et al., J. Pharmacol. Expt. Therap. 166:96-103 (1969), each of which is incorporated herein by reference. Briefly, adult female Balb/c mice were anesthetized by IP injection of 7 mg/kg ketoamine and 0.6 mg/kg rompun. Foot pad thickness was measured using a spring loaded micrometer (Swiss Precision Instruments). Foot pad thickness was expressed in units of 1/100 inch. After baseline measurements were obtained, mice were injected into a hind foot pad with either 0.2 ml physiologic saline (control) or varying doses of EX-2 or EX-3 in 0.2 ml saline (treated). The first injection was followed immediately by injection of 0.02 ml of 0.15% K-carageenan (Sigma Chemical Co.; St. Louis, Mo.).
Hind foot pad thickness was measured hourly for six hr, the change in thickness was determined and the percent reduction in swelling due to treatment with EX-2 was calculated.

LPS-induced fever = test: LPS-induced temperature increase (fever); format: in vivo, rats; conditions: 150 μg/kg IP; 6 hr following LPS injection
Protocol: Male Wistar rats (45-75 days old) were placed in a temperature controlled room held at 26° C., which is thermoneutral for the normal body temperature of rats, and were maintained in the room with free access to food and water for 24 hr prior to testing. On the morning of the study, rats were marked for identification and weighed. The temperature of each rat was determined by placing the animal in a regulatory cage designed to minimize stress and inserting a temperature probe (YSI probe #402) 3-5 cm into the animal's rectum. The temperature was recorded 15 sec after the reading stabilized. Measurements were repeated 1 hr later to establish a baseline temperature for each rat.
After the baseline temperatures were established, rats were injected IP with saline, IL-1β or LPS endotoxin. Rats then were injected IP with either saline (control) or various concentrations of EX-2, EX-3, or EX-4 (treated). The temperature of the rats was measured every hr for 6 hr and the inhibition by EX-2, EX-3, or EX-4 of the rise in temperature due to IL-1β or LPS was determined.
In addition, treatment with 50 or 150 μg/kg EX-2 inhibited LPS-induced fever by 45% or 52%, respectively, when measured 6 hr following LPS injection. Furthermore, treatment with 150 μg/kg EX-3 or EX-4 inhibited LPS-induced fever by 57% and 52%, respectively (Table II).

[4] = system: arachidonic acid-induced ear swelling; test: Arachidonic acid-induced ear swelling; format: in vivo, mice; conditions: 100 μg/mouse IP 30 min prior to AA; 60 min after AA
Protocol: Experiments were performed using female Balb/c mice weighing 18-23 grams. Saline or 100 μg EX-2 or EX-3 was administered IP, 30 min prior to topical application of arachidonic acid (AA). A 10 μl pipet was used to apply 10 μl AA solution (100 mg/ml ethanol; Calbiochem-Novabiochem; San Diego Calif.) to the inner and outer surfaces of the right ear of each mouse. Ten μl ethanol, alone, was applied to the inner and outer surface of the left ear of each mouse. Ear thickness was measured with a hand-held spring loaded caliper immediately before and 60 min after AA application. Increase in ear thickness was calculated by subtracting the change observed in the control ear from the change observed in AA-treated ear. The value for each group (saline and control) is the average of the swelling observed in the individual mice in each group. The percent reduction of swelling is based on the swelling observed in the saline control group.

[5] = system: morphine-induced respiratory depression; test: Morphine-induced respiratory depression; format: in vivo, rabbits; conditions: 10 + 20 + 20 μg/kg/rabbit iv; end of experiment (80 min)
Protocol: Male Shelton rabbits (3-4 kg) were restrained and fitted around the thorax, just behind the front limbs, with a respiration transducer (Model F-RCT; Grass Instruments; Quincy Ma). The transducer was connected to a grass polygraph via an EKG cable. An intravenous line was established for drug administration by cannulating the marginal ear vein using a 25 G butterfly needle.
Rabbit breathing was allowed to stabilize, then morphine sulfate (2 mg/kg in 0.5 ml saline) was administered by intravenous (iv) injection and respiratory rate and depth were monitored for 10 min. A second dose of morphine was administered, then, after 10 min, EX-2 or EX-3 (10 μg/kg in 0.5 ml saline) was administered, iv, and rabbits were monitored for 20 min. Two additional doses of EX-2 or EX-3 (20 μg/kg in 1.0 ml saline) were administered at 20 min intervals, i.e., 40 min and 60 min after the first morphine injection.
Results were calculated as the percent change from baseline values and are expressed as the difference of the mean value of the treated group minus the mean value of the control group at the end of the experiment (80 min).

TNF-α [6] = test: LPS-induced TNF-α levels, oral (gavage) dosing; format: in vivo, mice; conditions: one min before 0.1 mg LPS IP
Protocol: The ability of orally administered cytokine regulatory agents to reduce LPS-induced TNF-α levels also was examined. Balb/c female mice (20 g) were administered 150 μg or 300 μg EX-2, EX-3, EX-5 or EX-6 in 100 μl saline by gavage. Control mice received 100 μl saline, alone. One min later, 0.1 mg LPS was administered by IP injection. Samples were collected and TNF-α levels were determined as described in Example III, above.
The mean TNF-α levels in the mice from each group (n=9-20) was determined and the percent reduction in TNF-α levels was calculated.

LPS-induced lethality [7] = test: LPS-induced lethality, oral (gavage) dosing; format: in vivo; conditions: control mice 0%
Protocol: The LPS-induced lethality studies were performed based on information reported by Rivier et al., supra, 1989. Adult female Balb/c mice were provided food and water ad libitum. Mice were administered 150 μg or 300 μg EX-2, EX-3, EX-5 or EX-6 in 100 μl saline by gavage every 4 hr for 40 hr (total doses of 1.65 mg and 3.3 mg, respectively). Control mice received 100 μl saline, alone. Immediately following the first dose of cytokine regulatory agent or saline, 0.6 mg LPS in 0.2 ml saline was administered by IP injection.

SMILES | Inhibition of LPS-induced Lethality (increase in survival vs control) (LPS-induced lethality [1]) [%] | Reduction in TNF levels (TNF-α [2]) [%] | Reduction in Carageenan-induced Paw Swelling [3] [%] | Reduction in LPS-induced Fever (LPS-induced fever) [%] | Reduction in arachidonic acid-induced Ear Swelling [4] [%] | Reduction in Morphine-induced Respiratory Depression [5] [%] | percent reduction in TNF-α levels, oral dosing (TNF-α [6]; 150 μg by gavage) [%] | percent reduction in TNF-α levels, oral dosing (TNF-α [6]; 300 μg by gavage) [%] | survival after LPS, oral dosing (LPS-induced lethality [7]; 1.65 mg total (150 μg by gavage every 4 hr for 40 hr)) [%] | survival after LPS, oral dosing (LPS-induced lethality [7]; 3.3 mg total (300 μg by gavage every 4 hr for 40 hr))
CC(=O)N[C@H](C(=O)N[C@@H](CCC(N)=O)C(=O)N[C@@H](Cc1c[nH]cn1)C(=O)N[C@H](Cc1ccccc1)C(=O)N[C@@H](CCCNC(=N)N)C(=O)N[C@H](Cc1c[nH]c2ccccc12)C(=O)NCC(N)=O)C1CCCCC1 [EX-3, Ac-(cyclohexyl)Gly-Gln-His-(D) Phe-Arg- (D) Trp-Gly-NH2] | 86 | 56 | 49 | 57 | 62 | 65 | 49 | 40 |  | 
CC(=O)N[C@@H](Cc1c[nH]cn1)C(=O)N[C@H](Cc1ccccc1)C(=O)N[C@@H](CCCNC(=N)N)C(=O)N[C@H](Cc1c[nH]c2ccccc12)C(N)=O [EX-6, Ac-His-(D)Phe-Arg-(D)TrP-NH2] |  |  |  |  |  |  |  |  | 68 | 
CC(=O)N[C@@H](Cc1c[nH]cn1)C(=O)N[C@H](Cc1ccccc1)C(=O)N[C@@H](CCCNC(=N)N)C(=O)N[C@H](Cc1c[nH]c2ccccc12)C(=O)NCC(N)=O [EX-5, Ac-His- (D) Phe-Arg- (D) Trp-Gly-NH2] (Ac-H[dF]R[dW]G-NH2) |  |  |  |  |  |  |  | 44 |  | 63% and 44%
CC(=O)N[C@H](Cc1ccccc1)C(=O)N[C@@H](CCCNC(=N)N)C(=O)N[C@H](Cc1c[nH]c2ccccc12)C(N)=O [EX-4, Ac- (D) Phe-Arg-(D) Trp-NH2] | 75 | 53 |  | 52 |  |  |  |  |  | 
